We go through 26 molecules from ChEMBL document CHEMBL3425509, “Design, synthesis, and biological evaluation of benzofuran- and 2,3-dihydrobenzofuran-2-carboxylic acid N-(substituted)phenylamide derivatives as anticancer agents and inhibitors of NF-κB” (Bioorg Med Chem Lett, 2015).

As a reminder, the inhibition is the percentage by which the read-out fell short of the control.

The test system of experiment [1] is NCI-H23. Kind of experiment: Cytotoxicity against human NCI-H23 cells assessed as cell viability at 10 uM after 72 hrs by sulforhodamine B assay relative to control. Type of experiment: functional. Particulars: NCI-H23, 72 h, read-out: Activity.
Experiment [2] in a line: Cytotoxicity against human NUGC3 cells assessed as cell viability at 10 uM after 72 hrs by sulforhodamine B assay relative to control. Type of experiment: functional. Particulars: NUGC-3, 72 h, read-out: Activity. Background: Sulforhodamine B stains cellular protein and so reports cell mass.
Experiment [3] deals with ACHN. Kind of experiment: Cytotoxicity against human ACHN cells assessed as cell viability at 10 uM after 72 hrs by sulforhodamine B assay relative to control. Type of experiment: functional. Particulars: read-out: Activity.
The nature of experiment [4]: Cytotoxicity against human PC3 cells assessed as cell viability at 10 uM after 72 hrs by sulforhodamine B assay relative to control. The format is functional. The following applies: PC-3, 72 h, read-out: Activity.
Experiment [5] concerns MDA-MB-231. Kind of experiment: Cytotoxicity against human MDA-MB-231 cells assessed as cell viability at 10 uM after 72 hrs by sulforhodamine B assay relative to control. Particulars: MDA-MB-231, 72 h, read-out: Activity. The format is functional.
Experiment [6] concerns the target Nuclear factor NF-kappa-B complex (Homo sapiens) (UniProt Q00653+P19838+Q04206). Kind of experiment: Inhibition of NF-kappaB (unknown origin) transcriptional activity in LPS-induced mouse RAW264.7 cells at 30 uM after 1 hr by secreted alkaline phosphatase assay relative to control. The format is cell-based.
Experiment [7] can be described thus: Cytotoxicity against human HCT15 cells assessed as cell viability at 10 uM after 72 hrs by sulforhodamine B assay relative to control. Type of experiment: functional. The following applies: HCT-15, 72 h, read-out: Activity.

Structures are written as SMILES.

Chain of Nuclear factor NF-kappa-B complex (Homo sapiens) (P19838 whole entry, looked up): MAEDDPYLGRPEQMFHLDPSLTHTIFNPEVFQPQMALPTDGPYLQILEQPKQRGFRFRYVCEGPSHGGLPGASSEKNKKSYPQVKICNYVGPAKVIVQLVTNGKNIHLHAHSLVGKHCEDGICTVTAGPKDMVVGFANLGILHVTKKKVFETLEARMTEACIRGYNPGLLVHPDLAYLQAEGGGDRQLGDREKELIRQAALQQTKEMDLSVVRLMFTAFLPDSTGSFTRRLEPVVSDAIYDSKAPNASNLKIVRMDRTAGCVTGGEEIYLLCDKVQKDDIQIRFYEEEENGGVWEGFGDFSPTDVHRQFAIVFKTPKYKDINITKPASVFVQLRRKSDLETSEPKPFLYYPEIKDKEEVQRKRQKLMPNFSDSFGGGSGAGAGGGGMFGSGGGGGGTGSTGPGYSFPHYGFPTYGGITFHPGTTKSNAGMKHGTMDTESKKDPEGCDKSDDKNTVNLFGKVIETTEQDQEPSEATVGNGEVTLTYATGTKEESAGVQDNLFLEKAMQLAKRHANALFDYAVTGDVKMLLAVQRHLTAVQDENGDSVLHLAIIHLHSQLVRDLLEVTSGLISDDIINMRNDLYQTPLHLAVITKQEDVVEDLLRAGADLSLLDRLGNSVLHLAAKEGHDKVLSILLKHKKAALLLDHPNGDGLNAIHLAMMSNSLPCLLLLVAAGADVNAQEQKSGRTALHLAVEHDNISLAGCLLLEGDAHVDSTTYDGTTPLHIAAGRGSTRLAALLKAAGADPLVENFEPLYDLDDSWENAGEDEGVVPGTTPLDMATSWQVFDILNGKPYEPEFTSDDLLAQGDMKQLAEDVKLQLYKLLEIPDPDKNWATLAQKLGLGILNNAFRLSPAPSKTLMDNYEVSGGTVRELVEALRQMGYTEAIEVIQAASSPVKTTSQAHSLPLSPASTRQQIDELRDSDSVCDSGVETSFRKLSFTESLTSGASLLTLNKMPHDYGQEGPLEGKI
Chain of Nuclear factor NF-kappa-B complex (Homo sapiens) (Q00653 whole entry, looked up): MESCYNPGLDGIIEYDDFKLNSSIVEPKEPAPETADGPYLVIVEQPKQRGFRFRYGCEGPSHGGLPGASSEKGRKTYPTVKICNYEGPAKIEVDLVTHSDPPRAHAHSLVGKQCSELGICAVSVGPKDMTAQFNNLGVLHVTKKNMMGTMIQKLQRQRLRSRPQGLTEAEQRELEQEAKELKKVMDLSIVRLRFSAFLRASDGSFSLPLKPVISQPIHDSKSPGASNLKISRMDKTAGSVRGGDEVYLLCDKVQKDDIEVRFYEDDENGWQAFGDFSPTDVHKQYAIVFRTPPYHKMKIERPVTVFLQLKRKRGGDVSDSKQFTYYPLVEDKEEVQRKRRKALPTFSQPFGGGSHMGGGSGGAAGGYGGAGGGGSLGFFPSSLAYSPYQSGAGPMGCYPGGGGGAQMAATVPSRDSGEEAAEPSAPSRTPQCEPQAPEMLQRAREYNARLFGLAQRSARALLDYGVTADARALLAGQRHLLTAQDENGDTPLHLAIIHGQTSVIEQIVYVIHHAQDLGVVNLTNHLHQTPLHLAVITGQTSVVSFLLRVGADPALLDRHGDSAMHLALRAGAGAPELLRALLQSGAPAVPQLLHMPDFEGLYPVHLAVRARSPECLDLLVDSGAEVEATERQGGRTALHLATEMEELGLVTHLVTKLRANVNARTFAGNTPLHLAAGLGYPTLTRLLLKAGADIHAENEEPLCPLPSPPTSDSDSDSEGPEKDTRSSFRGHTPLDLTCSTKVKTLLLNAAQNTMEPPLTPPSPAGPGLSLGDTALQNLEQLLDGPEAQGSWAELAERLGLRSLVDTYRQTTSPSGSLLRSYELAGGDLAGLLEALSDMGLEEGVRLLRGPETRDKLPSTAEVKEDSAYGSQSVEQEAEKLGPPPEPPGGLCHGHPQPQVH
Chain of Nuclear factor NF-kappa-B complex (Homo sapiens) (Q04206 whole entry, looked up): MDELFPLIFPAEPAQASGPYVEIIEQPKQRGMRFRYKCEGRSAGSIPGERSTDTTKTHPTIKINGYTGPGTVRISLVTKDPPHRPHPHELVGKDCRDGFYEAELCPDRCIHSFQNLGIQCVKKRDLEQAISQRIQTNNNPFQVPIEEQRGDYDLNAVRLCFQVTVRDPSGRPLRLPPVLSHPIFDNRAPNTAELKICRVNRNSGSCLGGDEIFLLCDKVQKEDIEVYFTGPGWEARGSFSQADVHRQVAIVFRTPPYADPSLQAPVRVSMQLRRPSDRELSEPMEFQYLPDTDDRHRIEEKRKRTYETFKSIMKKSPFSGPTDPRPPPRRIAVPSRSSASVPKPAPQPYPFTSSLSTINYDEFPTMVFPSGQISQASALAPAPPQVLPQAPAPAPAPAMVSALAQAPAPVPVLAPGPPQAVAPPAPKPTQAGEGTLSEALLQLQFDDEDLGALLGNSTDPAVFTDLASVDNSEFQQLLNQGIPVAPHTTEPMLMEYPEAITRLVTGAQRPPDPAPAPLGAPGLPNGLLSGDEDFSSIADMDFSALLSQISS

As for `O=C(Nc1cc(Cl)cc(Cl)c1)C1Cc2ccccc2O1` (configuration not stated), the viability at 10 µM in experiment [1] worked out at 99%; in experiment [2], 114%; in experiment [3], 89%; in experiment [4], 89%; in experiment [5], 89%; in experiment [7], 98%. Moreover, the inhibition in experiment [6] stood at 75%.

In the case of `O=C(Nc1cc(Cl)ccc1Cl)C1Cc2ccccc2O1` (configuration not stated), the viability at 10 µM worked out at 90% in experiment [1]; 105% in experiment [2]; 101% in experiment [3]; 84% in experiment [4]; 74% in experiment [5]; 77% in experiment [7]. In addition, the inhibition in experiment [6] worked out at 42.5%.

Take `O=C(Nc1ccc(Cl)c(Cl)c1)c1cc2ccccc2o1`: the viability at 10 µM came out at 100% in experiment [1]; 102% in experiment [2]; 95% in experiment [3]; 113% in experiment [4]; 80% in experiment [5]; 96% in experiment [7]. The inhibition in experiment [6] is 40%.

For the molecule `O=C(Nc1ccccc1Cl)C1Cc2ccccc2O1` (configuration not stated), the viability at 10 µM in experiment [1] was found to be 104%; in experiment [2] it was 104%; in experiment [3], 87%; in experiment [4] it was 96%; in experiment [5] it was 81%; in experiment [7], 102%. In experiment [6], the inhibition was determined as 37.5%.

As to `COc1ccccc1NC(=O)c1cc2ccccc2o1`, the viability at 10 µM in experiment [1] was found to be 98%; in experiment [2], 99%; in experiment [3], 95%; in experiment [4], 106%; in experiment [5], 97%; in experiment [7], 94%. Moreover, the inhibition in experiment [6] stood at 41%.

Turning to `O=C(Nc1ccccc1)c1cc2ccccc2o1`, the viability at 10 µM was determined as 98% in experiment [1]; 97% in experiment [2]; 89% in experiment [3]; 83% in experiment [4]; 94% in experiment [5]; 75% in experiment [7]. The inhibition in experiment [6] worked out at 44%.

As for `Cc1cc(C)cc(NC(=O)C2Cc3ccccc3O2)c1` (configuration not stated), the viability at 10 µM in experiment [1] is 97%; in experiment [2] it was 95%; in experiment [3] it was 136%; in experiment [4], 94%; in experiment [5] it was 97%; in experiment [7], 91%. The molecule also displayed an inhibition in experiment [6] of 34%.

As for `O=C(Nc1ccc([N+](=O)[O-])cc1)c1cc2ccccc2o1`, the viability at 10 µM was 101% in experiment [1]; 95% in experiment [2]; 94% in experiment [3]; 87% in experiment [4]; 111% in experiment [5]; 84% in experiment [7]. This molecule also had an inhibition in experiment [6] of 34.5%.

As for `COc1ccc(NC(=O)c2cc3ccccc3o2)cc1OC`, the viability at 10 µM in experiment [1] is 102%; in experiment [2], 90%; in experiment [3] it was 99%; in experiment [4], 98%; in experiment [5], 81%; in experiment [7] it was 92%. The inhibition in experiment [6] amounted to 40%.

Turning to `O=C(Nc1ccc(Cl)cc1)C1Cc2ccccc2O1` (configuration not stated), the viability at 10 µM in experiment [1] turned out to be 89%; in experiment [2], 100%; in experiment [3], 143%; in experiment [4], 71%; in experiment [5], 100%; in experiment [7], 55%. For the same molecule, in experiment [6], the inhibition amounted to 41.5%.

Take `O=C(Nc1cc(Cl)ccc1Cl)c1cc2ccccc2o1`: the viability at 10 µM in experiment [1] came out at 96%; in experiment [2], 89%; in experiment [3], 96%; in experiment [4] it was 97%; in experiment [5] it was 101%; in experiment [7] it was 81%. In experiment [6], this molecule registered an inhibition of 36.5%.

Regarding `Cc1ccc(C)c(NC(=O)C2Cc3ccccc3O2)c1` (configuration not stated), the viability at 10 µM in experiment [1] stood at 103%; in experiment [2], 81%; in experiment [3], 129%; in experiment [4], 55%; in experiment [5], 88%; in experiment [7] it was 88%. The inhibition in experiment [6] came to 22%.

As for `O=C(Nc1ccccc1[N+](=O)[O-])C1Cc2ccccc2O1` (configuration not stated), the viability at 10 µM turned out to be 97% in experiment [1]; 89% in experiment [2]; 108% in experiment [3]; 89% in experiment [4]; 92% in experiment [5]; 94% in experiment [7]. This molecule returned an inhibition in experiment [6] of 28.5%.

`O=C(Nc1ccc(C(F)(F)F)cc1)C1Cc2ccccc2O1` (configuration not stated): the viability at 10 µM in experiment [1] was found to be 97%; in experiment [2] it was 99%; in experiment [3], 124%; in experiment [4] it was 60%; in experiment [5], 82%; in experiment [7] it was 96%. Also, in experiment [6], the inhibition worked out at 41%.

Regarding `O=C(Nc1cccc([N+](=O)[O-])c1)C1Cc2ccccc2O1` (configuration not stated), the viability at 10 µM in experiment [1] worked out at 95%; in experiment [2], 83%; in experiment [3] it was 109%; in experiment [4] it was 77%; in experiment [5], 92%; in experiment [7] it was 83%. This molecule also had an inhibition in experiment [6] of 40%.

Take `Cc1ccc(NC(=O)c2cc3ccccc3o2)cc1`: the viability at 10 µM in experiment [1] stood at 104%; in experiment [2] it was 95%; in experiment [3], 96%; in experiment [4], 103%; in experiment [5], 105%; in experiment [7], 82%. In experiment [6], this molecule showed an inhibition of 34.5%.

Take `COc1cccc(NC(=O)c2cc3ccccc3o2)c1`: the viability at 10 µM in experiment [1] amounted to 105%; in experiment [2], 99%; in experiment [3], 105%; in experiment [4], 106%; in experiment [5], 127%; in experiment [7] it was 87%. Moreover, the inhibition in experiment [6] is 34.5%.

With `O=C(Nc1ccccc1)C1Cc2ccccc2O1` (configuration not stated), the viability at 10 µM turned out to be 93% in experiment [1]; 87% in experiment [2]; 95% in experiment [3]; 92% in experiment [4]; 101% in experiment [5]; 88% in experiment [7]. In experiment [6], the inhibition came out at 10%.

Regarding `COc1ccc(NC(=O)c2cc3ccccc3o2)cc1`, the viability at 10 µM in experiment [1] came to 101%; in experiment [2], 102%; in experiment [3], 109%; in experiment [4], 111%; in experiment [5], 110%; in experiment [7], 87%. Also, the inhibition in experiment [6] was 39.5%.

On to `O=C(Nc1cc(C(F)(F)F)ccc1C(F)(F)F)C1Cc2ccccc2O1` (configuration not stated), for which the viability at 10 µM in experiment [1] was found to be 87%; in experiment [2] it was 99%; in experiment [3], 105%; in experiment [4], 88%; in experiment [5], 98%; in experiment [7] it was 81%. In experiment [6], this molecule showed an inhibition of 34%.

`O=C(Nc1ccccc1C(F)(F)F)c1cc2ccccc2o1`: the viability at 10 µM in experiment [1] was 100%; in experiment [2], 93%; in experiment [3] it was 98%; in experiment [4], 95%; in experiment [5] it was 114%; in experiment [7] it was 99%. The inhibition in experiment [6] worked out at 57.5%.

Turning to `COc1cc(NC(=O)C2Cc3ccccc3O2)cc(OC)c1` (configuration not stated), the viability at 10 µM came to 95% in experiment [1]; 96% in experiment [2]; 123% in experiment [3]; 73% in experiment [4]; 78% in experiment [5]; 91% in experiment [7]. The inhibition in experiment [6] came out at 24%.

Take `Cc1cccc(NC(=O)C2Cc3ccccc3O2)c1` (configuration not stated): the viability at 10 µM was found to be 98% in experiment [1]; 108% in experiment [2]; 145% in experiment [3]; 96% in experiment [4]; 95% in experiment [5]; 99% in experiment [7]. This molecule also registered an inhibition in experiment [6] of 25%.

Consider `O=C(Nc1ccccc1Cl)c1cc2ccccc2o1`, for which the viability at 10 µM in experiment [1] is 91%; in experiment [2] it was 86%; in experiment [3] it was 76%; in experiment [4] it was 91%; in experiment [5] it was 76%; in experiment [7], 75%. Also, the inhibition in experiment [6] was found to be 49.5%.

Consider `O=C(Nc1ccccc1C(F)(F)F)C1Cc2ccccc2O1` (configuration not stated), for which the viability at 10 µM in experiment [1] was 102%; in experiment [2], 103%; in experiment [3] it was 136%; in experiment [4], 74%; in experiment [5] it was 98%; in experiment [7] it was 98%. This molecule registered an inhibition in experiment [6] of 44.5%.

With `O=C(Nc1cccc(Cl)c1)C1Cc2ccccc2O1` (configuration not stated), the viability at 10 µM in experiment [1] stood at 101%; in experiment [2] it was 101%; in experiment [3], 134%; in experiment [4] it was 91%; in experiment [5], 80%; in experiment [7], 97%. The molecule further returned an inhibition in experiment [6] of 43.5%.
